Assay results from publication PMC7248252, “Accumulation of TB-Active Compounds in Murine Organs Relevant to Infection by Mycobacterium tuberculosis” (Frontiers in Pharmacology, 2020).
Values after ≈ are worked out from the molar mass of the structure shown.

Experiments:
[1] = set-up: method as in Ishida et al., 1999; settings: 120 mg/kg, Streptococcus pneumoniae-infected mouse model; ref Ishida et al., 1999; cited from earlier work
[2] = Unbound tissue concentrations (tissue binding by ultracentrifugation of spiked organ homogenate); settings: 1 μg/ml, 4 h, 37°C
[3] = in vivo, po, 10 mg/kg
[4] = tested on: Mycobacterium tuberculosis; settings: determined in different experiments, reference not given; cited from earlier work
[5] = mouse, tissue homogenate
[6] = 25 mg/kg, healthy murine lung tissue; ref Irwin et al., 2016; cited from earlier work

| Compound | maximal lung concentration [1] [µg/g] | Ratio bound ([2]; Blood) | Ratio bound ([2]; Brain) | Ratio bound ([2]; Heart) | Ratio bound ([2]; Kidney) | Ratio bound ([2]; Liver) | Ratio bound ([2]; Lung) | Ratio bound ([2]; Spleen) | Cmax (highest concentration) lung tissue ([3]; mouse) [nmol/mg] | estimated organ free fraction concentration compared with MIC90 ([3]; mouse) | MIC90 [4] [µM] | unbound fractions [5] | also measured |
| --- | --- | --- | --- | --- | --- | --- | --- | --- | --- | --- | --- | --- | --- |
| CC1(C)S[C@@H]2[C@H](NC(=O)[C@H](N)c3ccccc3)C(=O)N2[C@H]1C(=O)O [ampicillin] | 1.71 |  |  |  |  |  |  |  |  |  |  |  |  |
| CCCCCCCCCOc1cc2c(=O)c(C(=O)NCCOCCO)cn(CC)c2cc1OCC [RMB041] |  | 0.82 | 0.98 | 0.97 | 0.97 | 0.91 | 0.93 | 0.92 | 3.2 | below the MIC90 values | 1.61 (≈ 0.79 µg/mL) | 0.18-0.01 |  |
| COc1nc2ccc(Br)cc2cc1[C@@H](c1ccccc1)[C@@](O)(CCN(C)C)c1cccc2ccccc12 [bedaquiline] |  |  |  |  |  |  |  |  |  |  |  |  | Cmax lung tissue [6]: 24 µM |
| C[C@H]1COc2c(N3CCN(C)CC3)c(F)cc3c(=O)c(C(=O)O)cn1c23 [LVX] | 5.95 |  |  |  |  |  |  |  |  |  |  |  |  |
| CCN(CC)c1ccc2nc3c4ccccc4c(=Nc4ccccc4)cc-3oc2c1 [PhX1] |  | 0.88 | 0.98 | 0.98 | 0.97 | 0.99 | 0.97 | 0.94 | 22.4 ± 2.35 | below the MIC90 values | 0.196 (≈ 0.0771 µg/mL) | 0.18-0.01 | AUC lung tissue ([3]; male, C57BL/6, mouse): 9669 ± 120.2 min/nmol/mg; AUC heart tissue ([3]; mouse): 12450 ± 45.2 min/nmol/mg; Cmax heart tissue ([3]; mouse): 8.83 ± 3.16 nmol/mg |
| O=C(O)c1cn(C2CC2)c2cc(N3CCNCC3)c(F)cc2c1=O [ciprofloxacin] | 1.10 |  |  |  |  |  |  |  |  |  |  |  |  |
